The text below walks through data of PMC12067444, “Synthesis and Pharmacological Characterization of Novel Peripheral Cannabinoid-1 Receptor Blockers Based on a Tricyclic Scaffold” (Journal of Medicinal Chemistry, 2025).

One series relates to C57BL/6J mice. The experiment in a line: Assessment of centrally mediated hyperactivity (locomotor activity). In kind it is in vivo, mouse. The method, then: The activity profiles of the mice were evaluated using the Promethion High-Definition Behavioral Phenotyping System (Sable Instruments, Inc., Las Vegas, NV, USA). MetaScreen software version 2.2.18.0 was employed for data acquisition and instrument control, while ExpeData version 1.8.4 was used for processing raw data. An analysis script detailing all aspects of the data transformation was utilized. Mice with unrestricted access to food and water were subjected to a standard 12 h light/12 h dark cycle, comprising a 16-h acclimation period followed by 24 h of sampling. Ambulatory activity and position were concurrently quantified by the number of disruptions of the infrared beams in three dimensions (XYZ) with a beam spacing of 0.25 cm.
This experiment aimed to evaluate the capacity of BNS808 and rimonabant (used as a positive control) to elicit centrally mediated hyperactivity in mice (a known feature of a brain penetrant compound). For this purpose, male wild-type C57BL/6J mice received a single dose of either the vehicle, rimonabant (10 mg/kg, PO), or BNS808 (1 or 10 mg/kg, PO). The locomotor activity was quantified by measuring the disruptions of infrared beams in two dimensions (XY) for 1 h. Each testing session involved evaluating two groups at a time.

The nature of series [1]: Stability in simulated gastric fluid (SGF). The class given is in vitro ADME.
A further series has as its target T1, CYP1A2 (Homo sapiens, UniProt P05177).
T1 construct: from tissue; host or cells: human liver microsomes
T1 sequence (P05177 1-516): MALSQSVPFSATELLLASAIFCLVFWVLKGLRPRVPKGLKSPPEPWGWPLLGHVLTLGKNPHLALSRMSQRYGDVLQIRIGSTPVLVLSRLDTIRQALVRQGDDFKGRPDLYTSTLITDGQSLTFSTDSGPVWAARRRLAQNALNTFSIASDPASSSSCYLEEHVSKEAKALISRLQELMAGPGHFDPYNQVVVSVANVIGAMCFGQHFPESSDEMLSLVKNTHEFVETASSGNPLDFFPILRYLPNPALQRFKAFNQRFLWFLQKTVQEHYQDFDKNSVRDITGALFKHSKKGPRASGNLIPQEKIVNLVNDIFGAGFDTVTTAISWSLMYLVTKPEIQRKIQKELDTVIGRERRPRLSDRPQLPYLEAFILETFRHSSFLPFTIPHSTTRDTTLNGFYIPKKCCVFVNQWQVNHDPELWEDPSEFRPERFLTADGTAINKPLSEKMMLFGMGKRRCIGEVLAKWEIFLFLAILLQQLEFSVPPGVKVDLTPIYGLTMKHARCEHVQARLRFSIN
The experiment in a line: CYP inhibition in human liver microsomes. The class given is in vitro ADME. Conditions: probe phenacetin, phenacetin substrate. The protocol: (§1) Human liver microsomes were incubated with the test compounds at 0.2 mg/mL of microsomal protein. The incubation was conducted at 37 °C in the presence of a NADPH (β-Nicotinamide adenine dinucleotide phosphate reduced form) regenerating system at a concentration of approximately 10 mM. To assess CYP inhibition, positive control substrates were utilized, including Phenacetin (1A2 substrate), Diclofenac (2C9 substrate), S-mephenytoin (2C19 substrate), Dextromethorphan (2D6 substrate), and Midazolam (3A4 substrate). The mixture was centrifuged after a 10 min incubation period to precipitate the protein. Subsequently, the samples underwent LC-MS/MS analysis, and the IC50 values were calculated to ascertain the inhibitory potency of the test compounds on specific CYP enzymes.
On the technique in general: Microsomes from liver hold many membrane-bound enzymes, among them those of drug oxidation.

A further series has as its target T2, CYP2D6 (Homo sapiens, UniProt P10635).
T2 construct: from tissue; host or cells: human liver microsomes
The experiment in a line: CYP inhibition in human liver microsomes. The class given is in vitro ADME. Conditions: probe dextromethorphan, dextromethorphan substrate. The protocol:
as §1

The nature of series [2]: Tissue distribution after chronic oral administration in diet-induced obese mice. The class given is in vivo. Conditions: C57Bl/6J, mouse, brain; 1 mg/kg PO for 24 days, DIO mice, 24 h after last dose; read-out: brain concentration after chronic treatment. The protocol: Tissue distribution after chronic administration was conducted similarly, except tissue collection was performed 24 h after the last drug administration and analyzed in the same manner as previously described.
Supplementary F igure 2. BNS808 biodistribution and pharm acokinet ics aft er chronic P O adm inist rat ion. The accumulation of BNS808 in organs/plasma was evaluated by analyzing the BNS808 levels in the plasma, brain, and liver post-chronic administration of 1 mg/kg PO for 24 days in diet-induced obese mice. Data r epr esent the mean ± SE M of 4 mice per gr oup.
(1 picture or pasted object on this page, not shown here)

For series [3], the system named is bacteria strains TA98, TA100. The experiment in a line: Mini-Ames assay, overall result. The class given is cell-based. The protocol:
Mini Am es assay. To conduct the assay, top agar was melted with a microwave and maintained at a temper atur e ≥47 °C in a water bath. T he assay was performed using a heat block set to 45 °C ± 2 °C. 12 × 75 mm test tubes were prepared in duplicates. For each concentration, the following components were added sequentially to a test tube:
[…] The mixture was vortexed and then dispensed into w ells using a dispo sable pipette. The plates wer e then incubated at 37±2 °C for approximately 48 to 72 hours.
BBbbbb BBBBbbbb BBBB = AAAAbbbbbbAAbb nnnnnnbbbbbb bboo bbbbAAbbbbbbbbnnbbbb oobbbb bbbb eeee dd bbbbbb AAbbbbnn gg AAAAbbbbbbAAbb nnnnnnbbbbbb bbBB bbbbAAbbbbbbbbnnbbbb BBbbbb DDDDDDDD nn bbAAbbbbaaAAbb AAbbbbnnaa The mutagenicity of the compound was determined by evaluating the number of revertant colonies in strains TA98 and TA100. A compound was […]
related and if the fold increase in revertants (F) was equal to or greater than 2 for […]
background lawn growth on the agar plates. A scoring system ranging from 0 to 4 […]
complete cytotoxicity, while scores 1, 2, and 3 represented 25%, 50%, and 75% growth, respectively. A score of 4 signified full '100%' growth. The background […]
background lawn and required magnification for visualization. […]
In general terms: In the Ames test, an excess of revertant colonies over the control signals mutagenicity.

T2 sequence (P10635 whole entry): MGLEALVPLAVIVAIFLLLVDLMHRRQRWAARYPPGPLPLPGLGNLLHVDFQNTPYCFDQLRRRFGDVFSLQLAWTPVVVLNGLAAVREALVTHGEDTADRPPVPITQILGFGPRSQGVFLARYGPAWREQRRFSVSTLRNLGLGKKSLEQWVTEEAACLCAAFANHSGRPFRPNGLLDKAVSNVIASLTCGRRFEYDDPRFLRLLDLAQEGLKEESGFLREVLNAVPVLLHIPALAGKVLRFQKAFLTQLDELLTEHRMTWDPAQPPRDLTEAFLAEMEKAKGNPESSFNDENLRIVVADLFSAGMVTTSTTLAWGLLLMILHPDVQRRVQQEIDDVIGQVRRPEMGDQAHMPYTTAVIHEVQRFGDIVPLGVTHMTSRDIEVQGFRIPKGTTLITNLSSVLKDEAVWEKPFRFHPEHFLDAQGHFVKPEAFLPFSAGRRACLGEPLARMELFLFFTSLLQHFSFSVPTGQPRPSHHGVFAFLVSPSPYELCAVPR

In the case of `O=S(=O)(NC1CCCOc2c1nn(-c1ccccc1Cl)c2-c1ccc(Cl)cc1)c1ccc(Cl)cc1` (centres unmarked) [BNS808, 4-chloro-N-[2-(2-chlorophenyl)-3-(4-chlorophenyl)-5,6,7,8-tetrahydrooxepino[3,2-c]pyrazol-8-yl]benzenesulfonamide], the CNS-mediated side effects result with C57BL/6J mice (1 mg/kg and 10 mg/kg PO, mice) is listed as “No CNS-mediated side effects were observed”. Further, the “locomotor activity (centrally mediated hyperactivity)” value in the series on C57BL/6J mice (single dose 1 or 10 mg/kg PO, male C57Bl/6J mice, 1 h) is recorded as “no significant changes in locomotor activity”. Also, in series [1] (0 h), the “amount in SGF with pepsin” value was 2.753 mg and the “amount in SGF, no pepsin” value was 2.826 mg. In series [1] (1 h), the “Initial amount (%) in SGF with pepsin” value was 98%; the “Initial amount (%) in SGF, no pepsin” value is reported as 102%; the “amount in SGF with pepsin” value is 2.69 mg. Moreover, the “stability in SGF and SIF” value in series [1] (summary column covering SGF and SIF) is reported as “stable”. In series [1] (with and without pepsin), the “Stability in SGF” value is “Stable”. In addition, on CYP1A2, the 50% inhibitory concentration (IC50) (as a rule, the midpoint of a concentration-inhibition curve) at 10 min was above 50 µM. On CYP2D6, this molecule yielded an IC50 at 10 min above 50 µM. Besides, in series [2], the concentration at 24 h is around 20 ng/g. The “toxicity in mini-Ames assay” value in series [3] (31.25 to 1000 μg/well, TA98 and TA100) is reported as “no toxicity”. Besides, in series [3] (TA98 and TA100, with and without S9), the “mini-Ames assay (mutagenic effect)” value is “nonmutagenic ^b”.
